Assays:
[1] = molecular target: T1, human dopamine D2 receptor (Homo sapiens, UniProt P14416); experiment: Stimulating activities of human dopamine D2 receptor, [35S]GTPγS binding to hD2R#7 (HEK293) membrane homogenates; format: biochemical; details: [35S]GTPγS binding, membrane homogenates, mean value (n=2); read-out: EC50
T1 construct: expressed in transfected cells
Protocol: Identification Test of Stimulating Activities on Human Dopamine D2 Receptor
The cells, which were grown to confluence in 150 mm dishes (IWAKI), were harvested with isotonic buffer (50 mM Tris (Sigma), 2 mM ethylenediamine-tetraacetic acid (Invitrogen), and 125 mM sodium chloride (Wako Pure Chemicals), pH 7.4) and centrifuged at 1880×g and 4° C. for 10 minutes, and the cell pellets were then suspended in isotonic buffer. After being subjected to one cycle of freezing and thawing, the cells were centrifuged at 1880×g and 4° C. for 10 minutes, and the cell pellets were suspended in isotonic buffer. The cells were centrifuged at 1880×g and 4° C. for 10 minutes, and the cell pellets were suspended in isotonic buffer and homogenate buffer (10 mM sodium bicarbonate (Nacalai) and 5 mM ethylenediamine-tetraacetic acid, pH 7.5). The volume ratio of isotonic-to-homogenate buffer was 2. The cells were sonicated and centrifuged at 1880×g and 4° C. for 10 minutes, and the supernatants were ultracentrifuged at 80000×g and 4° C. for 30 minutes. The final cell pellets were suspended in homogenate buffer containing protease inhibitor cocktail (Nacalai) and stored at −80° C. until use. The protein concentration was determined using BCA Protein Assay Kit (Pierce) in accordance with the manufacturer's instructions.
The stimulating activities of human dopamine D2 receptor was determined by measuring the binding potential of [^35S]-guanosine 5′-[gamma-thio]triphosphate ([^35S]GTPγS, PerkinElmer) according to the method described by Newman-Tancredi A. et al. (Naunyn-Schmiedeberg's Arch Pharmacol, 1999, vol. 359, pp. 447-453) with a minor modification. Test compounds and dopamine hydrochloride (Fluka) as positive control were dissolved in dimethyl sulfoxide (CARLBIOCHEM), resulting in 30 mM. The both compounds were diluted with assay buffer (50 mM Tris, 100 mM sodium chloride, 5 mM magnesium chloride (Nacalai), 1 mM ethylenediamine-tetraacetic acid, 1 mM dithiothreitol (Wako Pure Chemicals), 10 μM guanosine diphosphate (Wako Pure Chemicals) and 0.5% bovine serum albumin (Sigma), pH 7.4) to a final concentration of 100 pM (only test compounds), 1 nM, 10 nM, 100 nM, 1 μM, 10 μM and 100 μM (only dopamine hydrochloride). The above membrane homogenates and [^35S]GTPγS were diluted with assay buffer to a final concentration of 0.06 mg/mL and 0.6 nM, respectively. The serial diluted compounds (50 μL), the diluted membrane homogenates (50 μL) and the diluted [^35S]GTPγS (50 μL) were mixed on multi-screen 96-well plate (Millipore) and shaken lightly at room temperature for 60 minutes. The reaction was terminated by vacuum filtration with three times washes of ice-cold wash buffer (50 mM Tris, 100 mM sodium chloride, 5 mM magnesium chloride, and 1 mM ethylenediamine-tetraacetic acid, pH 7.4). After drying the bottoms of the plate at 60° C., MicroScinti-40 (PerkinElmer) (30 μL) was added in the plate. The tops of the plate were sealed by TopSeal-A (PerkinElmer), and the radioactivity was determined in a TopCount NXT (registered mark)(PerkinElmer) after shaking lightly for 5-10 minutes. The data was analyzed by nonlinear regression and sigmoidal dose-response curve fitting using GraphPad PRISM 4.0 (GraphPad Software), and values of EC50 (concentration of the compound producing half the maximal effect of the compound) were calculated. The data was presented as mean value (n=2).

[2] = molecular target: T2, human serotonin 5-HT2B receptor (Homo sapiens, UniProt P41595); experiment: Stimulating activities of human serotonin 5-HT2B receptor, intracellular calcium in forced expression HEK293 cells; format: cell-based; details: intracellular calcium concentration, mean value (n=2)
T2 construct: expressed in transfected cells; host or cells: HEK293 (transient transfection)
T2 sequence (P41595 whole entry): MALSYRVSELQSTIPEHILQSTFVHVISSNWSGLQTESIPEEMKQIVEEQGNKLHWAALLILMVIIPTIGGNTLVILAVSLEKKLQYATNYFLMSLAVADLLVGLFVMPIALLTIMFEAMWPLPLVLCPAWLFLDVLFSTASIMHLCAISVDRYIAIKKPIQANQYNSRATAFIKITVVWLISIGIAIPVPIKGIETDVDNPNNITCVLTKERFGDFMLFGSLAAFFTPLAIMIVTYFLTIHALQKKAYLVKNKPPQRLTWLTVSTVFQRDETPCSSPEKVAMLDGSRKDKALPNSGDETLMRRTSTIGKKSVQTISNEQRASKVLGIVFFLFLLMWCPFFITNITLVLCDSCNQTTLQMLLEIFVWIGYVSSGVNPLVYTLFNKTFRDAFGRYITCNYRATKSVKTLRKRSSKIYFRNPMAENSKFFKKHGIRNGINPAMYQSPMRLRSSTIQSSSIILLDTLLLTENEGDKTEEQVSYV
Protocol: Identification Test of Stimulating Activities on Human Serotonin 5-HT2B Receptor
Mostly confluent HEK293 cells were washed with PBS, followed by exfoliation with 0.05% trypsin-EDTA and the cells were suspended in D-MEM liquid medium (phenol red-free, low glucose, pyruvic acid were contained) containing fetal bovine serum (final concentration: 10%) and GlutaMax (registered mark) I (final concentration: 2 mM). The suspension was scattered at 5×10^4 cells/100 μL/well on poly-D-lysine-coated 96-well microplate (BD BioCoat (registered mark)). The scattered cells were cultured in 5% CO2 incubator at 37° C. Human serotonin 5-HT2B receptor expression plasmid was transfected in that cells according to the procedure seeing below.
Human serotonin 5-HT2B receptor expression plasmid and Lipofectamine (registered mark) 2000 (Invitrogen) were diluted to 0.008 g/L and 0.016 g/L each other with OPTI-MEM (registered mark) I Reduced-Serum Medium and incubated at room temperature. After incubation, the human serotonin 5-HT2B receptor expression plasmid-diluted liquid and Lipofectamine (registered mark) 2000-diluted liquid were mixed at an equal volume and incubated at room temperature to form a complex. The complex was dispensed at 50 μL/well on the cells prepared above. The cells were incubated in 5% CO2 incubator at 37° C. for 2 days. After incubation, the cells were used as human serotonin 5-HT2B receptor forced expression cells for measurement of intracellular calcium concentration.
The stimulating activities of human serotonin 5-HT2B receptor was determined by measuring of intracellular calcium concentration. The 30 mM dimethyl sulfoxide (DMSO) solution contained test compounds or serotonin hydrochloride (Sigma) as positive control, was diluted with assay buffer ((HBSS), 20 mM HEPES, 1.3 mM calcium chloride, 0.5 mM magnesium chloride and 0.4 mM magnesium sulfate were contained, pH7.4) to appropriate concentration.
The forced expression cells were washed with assay buffer, and 100 μL/well of fluorescent calcium indicator (Fluo-4 NW Calcium Assay Kit) was added and incubated in 5% CO2 incubator at 37° C. After incubation, 50 μL/well of each test compound was added, and the concentration of intracellular calcium was measured as fluorescent signal with FlexStation (registered mark) II (Molecular Devices). The data was analyzed by nonlinear regression and sigmoidal dose-response curve fitting using GraphPad PRISM 4.0, and values of EC50 (concentration of the compound producing half the maximal effect of the compound) were calculated. The data was presented as mean value (n=2).

[3] = test system: unilateral 6-hydroxydopamine-lesioned hemi-Parkisonian rats; experiment: Contralateral rotational behavior in unilateral 6-hydroxydopamine-lesioned hemi-parkinsonian rats; format: in vivo, rat; details: orally 10 mg/kg, mean value; for Total number of rotations: contralateral rotations up to 24 hours after administration; for Duration: measured up to 24 hours after administration, duration of rotational response
Protocol: 6-OHDA was dissolved at 2 mg/mL in a physiolosical saline solution containing 0.2% L-ascorbic acid. Desipramine was dissolved at 10 mg/mL in a physiolosical saline solution in a hot-water bath. Apomorphine was dissolved at 0.1 mg/mL in a physiolosical saline solution. Ropinirole was dissolved in distilled water. Test compounds were dissolved in a solution containing 2% DMA, 100 or 200 mol % hydrochloric acid, and 98% of a 0.5% methyl cellulose solution. […] (Eur J Pharmacol, 2000, vol. 408, P. 249-255) with a minor modification. Male Sprague-Dawley rats (6-weeks-old, Charles River Laboratories Japan Inc.) were anaesthetized with intraperitoneal somnopentyl (45 mg/kg) injection and placed in a stereotaxic frame (Narishige). In order to prevent 6-OHDA-induced damage of noradrenergic neurons, desipramine (25 mg/kg) was intraperitoneally injected 30 minutes before the 6-OHDA injection. After the bregma identification via a middle calvarial incision, the skull was drilled using a dental drill at the site of 6-OHDA injection. The lesion was made by injecting 6-OHDA (8 μg in 4 μL at a speed of 1 μL/minute) unilaterally into the left medial forebrain bundle by using a injection cannula (30 gauge needle) connected to a microsyringe (Hamilton) (the lesion coordinates; A/P −2.5 mm, L/M −1.8 mm, and V/D −8.0 mm, from the bregma point and surface of the skull). The cannula was carefully removed from the animal after keeping placed on the lesion site for 5 minutes. The skull was filled its hole with dental cement, disinfected, and the scalp incision was surgically sutured. Animals recovered from anesthesia were housed as usual until the day of the experiment. Three weeks after the lesion, rats were tested on the basis of their contralateral rotational behavior (single rotation was defined as a 360° turn) in response to 0.1 mg/kg apomorphine given subcutaneously. For behavioral observation, rats were placed in plastic cylinders of a diameter of 30 cm, and its contralateral rotational behaviors were videotaped and quantified by rat-rotation auto counting system R-RACS (Kissei Wellcom). On the experimental day, animals were fasted overnight, and test compounds were orally administrated at doses of 10 mg/kg. The drug potency was measured until up to 24 hours after administration as the number of contralateral rotation. […] Total number of rotations and the duration of the response in experimental period were presented as mean value. As comparative example, ropinirole as non-ergot dopamine D2 receptor agonist, was examined in a similar fashion.

T1 sequence (P14416 whole entry): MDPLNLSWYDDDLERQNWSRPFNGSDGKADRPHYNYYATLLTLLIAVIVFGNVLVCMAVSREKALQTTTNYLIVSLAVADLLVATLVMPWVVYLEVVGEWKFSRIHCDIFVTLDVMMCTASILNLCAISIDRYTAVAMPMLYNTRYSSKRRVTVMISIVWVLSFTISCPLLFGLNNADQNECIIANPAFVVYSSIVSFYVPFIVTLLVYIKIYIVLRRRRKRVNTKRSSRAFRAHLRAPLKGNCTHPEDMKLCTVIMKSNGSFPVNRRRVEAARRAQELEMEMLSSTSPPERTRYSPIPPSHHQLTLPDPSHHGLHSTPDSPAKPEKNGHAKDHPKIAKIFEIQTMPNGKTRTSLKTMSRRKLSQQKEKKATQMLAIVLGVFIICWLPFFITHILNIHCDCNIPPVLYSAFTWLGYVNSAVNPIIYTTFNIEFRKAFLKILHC

| SMILES | EC50 [1] [nM] | EC50 [2] [nM] | Total number of rotations [3] | Duration [3] [minuets] |
| --- | --- | --- | --- | --- |
| CCCN(CCN(C)C)C(=O)N[C@H]1C[C@@H]2Cc3nc(N)ncc3C[C@H]2N(CCC)C1 [Compound 1-2, 3-[(5aR,8S,9aR)-2-amino-6-propyl-5,5a,6,7,8,9,9a,10-octahydropyrido[2,3-g]quinazolin-8-yl]-1-[2-(dimethylamino)ethyl]-1-propylurea] | 252 | > 10000 | 2580.0 | 307.5 |
| CCCN1C[C@@H](NC(=O)N(C)CCN(CC)CC)C[C@@H]2Cc3nc(N)ncc3C[C@H]21 [Compound 1-4, 3-[(5aR,8S,9aR)-2-amino-6-propyl-5,5a,6,7,8,9,9a,10-octahydropyrido[2,3-g]quinazolin-8-yl]-1-[2-(diethylamino)ethyl]-1-methylurea] | 111 | > 10000 | 3975.0 | 538.8 |
